The test deals with T1, human M1 receptor (Homo sapiens, UniProt P11229).
T1 sequence (P11229 1-460): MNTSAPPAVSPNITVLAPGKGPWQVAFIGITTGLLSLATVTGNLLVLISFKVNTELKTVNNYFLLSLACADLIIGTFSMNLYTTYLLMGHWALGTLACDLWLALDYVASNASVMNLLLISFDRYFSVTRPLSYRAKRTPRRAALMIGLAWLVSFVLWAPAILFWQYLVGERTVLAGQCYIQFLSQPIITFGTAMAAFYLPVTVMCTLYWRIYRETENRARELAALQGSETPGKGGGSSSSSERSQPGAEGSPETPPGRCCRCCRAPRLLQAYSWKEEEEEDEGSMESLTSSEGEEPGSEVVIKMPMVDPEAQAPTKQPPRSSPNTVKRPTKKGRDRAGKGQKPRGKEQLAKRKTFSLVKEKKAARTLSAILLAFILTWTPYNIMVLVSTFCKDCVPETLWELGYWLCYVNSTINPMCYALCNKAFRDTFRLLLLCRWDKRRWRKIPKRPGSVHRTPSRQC
Put plainly: In vitro functional assay of muscarinic acetylcholine receptor activity (aequorin calcium flux, reversal of EC80 acetylcholine response). As to conditions: CHO-K1 cells stably expressing human M1 receptor with aequorin; acetylcholine at EC80; calcium flux (luminescence); read-out: M1 IC50. Format: cell-based. An outline of the steps: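 Antagonist mode: compound (final 0.1% DMSO) and coelenterazine-loaded M1/aequorin CHO-K1 cells incubated 30 min in the dark before EC80 acetylcholine addition. Calcium flash integrated as 40 s luminescence AUC; IC50 derived from dose-response curves.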

pIC50: −log10 of the molar value.

In the case of `COc1cc(C2(OCC(=O)N3CC4CCC(C3)N4c3ccc(C#N)cn3)CCC2)ncn1` [Example 263, 6-(3-(2-(1-(6-methoxypyrimidin-4-yl)cyclobutoxy)acetyl)-3,8-diazabicyclo[3.2.1]octan-8-yl)nicotinonitrile], the pIC50 is 7.00 to 8.00.

In the case of `COc1ccnc(C2(OCC(=O)N3CC4CCC(C3)N4c3ccc(C#N)cn3)CCC2)n1` [Example 264, 6-(3-(2-(1-(4-methoxypyrimidin-2-yl)cyclobutoxy)acetyl)-3,8-diazabicyclo[3.2.1]octan-8-yl)nicotinonitrile], the negative logarithm of the IC50 (pIC50) is more than 8.00.

With `Cc1noc(C)c1C1(OCC(=O)N2CC3CCC(C2)N3c2ccc(C#N)cn2)CCC1` [Example 265, 6-(3-(2-(1-(3,5-dimethylisoxazol-4-yl)cyclobutoxy)acetyl)-3,8-diazabicyclo[3.2.1]octan-8-yl)nicotinonitrile], the pIC50 is more than 8.00. For `Cc1csc(C2(OCC(=O)N3CC4CCC(C3)N4c3ccc(C#N)cn3)CCC2)n1` [Example 266, 6-(3-(2-(1-(4-methylthiazol-2-yl)cyclobutoxy)acetyl)-3,8-diazabicyclo[3.2.1]octan-8-yl)nicotinonitrile], the pIC50 is 6.00 to 7.00. On to `COc1cc(C2(OCC(=O)N3CC4CCC(C3)N4c3ccc(C#N)cn3)CCCC2)ccn1` [Example 267, 6-(3-(2-((1-(2-methoxypyridin-4-yl)cyclopentyl)oxy)acetyl)-3,8-diazabicyclo[3.2.1]octan-8-yl)nicotinonitrile], for which the pIC50 is 7.00 to 8.00.

With `N#Cc1ccc(N2C3CCC2CN(C(=O)COC2(c4cncc(F)c4)CCCC2)C3)nc1` [Example 268, 6-(3-(2-((1-(5-fluoropyridin-3-yl)cyclopentyl)oxy)acetyl)-3,8-diazabicyclo[3.2.1]octan-8-yl)nicotinonitrile], the negative-log IC50 (pIC50) is 7.00 to 8.00. In the case of `N#Cc1ccc(N2C3CCC2CN(C(=O)COC2(c4c(F)cnc(Br)c4F)CCC2)C3)nc1` [Example 270, 6-(3-(2-(1-(2-bromo-3,5-difluoropyridin-4-yl)cyclobutoxy)acetyl)-3,8-diazabicyclo[3.2.1]octan-8-yl)nicotinonitrile] it was more than 8.00. In the case of `N#Cc1ccc(N2C3CCC2CN(C(=O)COC2(c4ncc(F)cc4F)CCC2)C3)nc1` [Example 271, 6-(3-(2-(1-(3,5-difluoropyridin-2-yl)cyclobutoxy)acetyl)-3,8-diazabicyclo[3.2.1]octan-8-yl)nicotinonitrile] it was 6.00 to 7.00.

As for `COc1ncc(F)c(C2(OCC(=O)N3CC4CCC(C3)N4c3ccc(C#N)cn3)CCC2)c1F` [Example 272, 6-(3-(2-(1-(3,5-difluoro-2-methoxypyridin-4-yl)cyclobutoxy)acetyl)-3,8-diazabicyclo[3.2.1]octan-8-yl)nicotinonitrile], the pIC50 is 7.00 to 8.00.

`N#Cc1ccc(N2C3CCC2CN(C(=O)COC2(c4ncccn4)CCC2)C3)nc1` [Example 273, 6-(3-(2-(1-(pyrimidin-2-yl)cyclobutoxy)acetyl)-3,8-diazabicyclo[3.2.1]octan-8-yl)nicotinonitrile]: the pIC50 was 6.00 to 7.00.

For the compound `N#Cc1ccc(N2C3CCC2CN(C(=O)COC2(c4cccnn4)CCC2)C3)nc1` [Example 274, 6-(3-(2-(1-(pyridazin-3-yl)cyclobutoxy)acetyl)-3,8-diazabicyclo[3.2.1]octan-8-yl)nicotinonitrile], the negative-log IC50 (pIC50) was 7.00 to 8.00.

As for `COc1cc(C2(OCC(=O)N3CC4CCC(C3)N4c3ccc(C#N)cn3)CCC2)cnn1` [Example 275, 6-(3-(2-(1-(6-methoxypyridazin-4-yl)cyclobutoxy)acetyl)-3,8-diazabicyclo[3.2.1]octan-8-yl)nicotinonitrile], the negative logarithm of the IC50 (pIC50) was 7.00 to 8.00. In the case of `N#Cc1ccc(N2C3CCC2CN(C(=O)COCC(F)(F)c2cccc4ncccc24)C3)nc1` [Example 276, 6-(3-(2-(2,2-difluoro-2-(quinolin-5-yl)ethoxy)acetyl)-3,8-diazabicyclo[3.2.1]octan-8-yl)nicotinonitrile] it was more than 8.00; in that of `COc1cc(C(F)(F)COCC(=O)N2CC3CCC(C2)N3c2ccc(C#N)cn2)ccn1` [Example 277, 6-(3-(2-(2,2-difluoro-2-(2-methoxypyridin-4-yl)ethoxy)acetyl)-3,8-diazabicyclo[3.2.1]octan-8-yl)nicotinonitrile], 6.00 to 7.00. Regarding `N#Cc1ccc(N2C3CCC2CN(C(=O)COCC(F)(F)c2cccn4ncnc24)C3)nc1` [Example 278, 6-(3-(2-(2-([1,2,4]triazolo[1,5-a]pyridin-8-yl)-2,2-difluoroethoxy)acetyl)-3,8-diazabicyclo[3.2.1]octan-8-yl)nicotinonitrile], the pIC50 is more than 8.00. As for `N#Cc1ccc(N2C3COCC2CN(C(=O)COC2(c4ccc(F)c(F)c4)CC2)C3)nc1` [Example 279, 6-(7-(2-(1-(3,4-difluorophenyl)cyclopropoxy)acetyl)-3-oxa-7,9-diazabicyclo[3.3.1]nonan-9-yl)nicotinonitrile], the pIC50 was 5.00 to 6.00. In the case of `N#Cc1ccc(N2C3CCC2CN(C(=O)COC2(c4ccc(F)c(F)c4)CC2)C3)nn1` [Example 280, 6-(3-(2-(1-(3,4-difluorophenyl)cyclopropoxy)acetyl)-3,8-diazabicyclo[3.2.1]octan-8-yl)pyridazine-3-carbonitrile] it was 6.00 to 7.00. In the case of `COc1cncc(C2(OCC(=O)N3CC4CCC(C3)N4c3ccnc(C#N)c3)CCC2)c1` [Example 281, 4-(3-(2-(1-(5-methoxypyridin-3-yl)cyclobutoxy)acetyl)-3,8-diazabicyclo[3.2.1]octan-8-yl)picolinonitrile] it was more than 8.00. The result for `N#Cc1cc(N2C3CCC2CN(C(=O)COC2(c4ccncc4F)CCC2)C3)ccn1` [Example 282, 4-(3-(2-(1-(3-fluoropyridin-4-yl)cyclobutoxy)acetyl)-3,8-diazabicyclo[3.2.1]octan-8-yl)picolinonitrile] reads 7.00 to 8.00; that for `N#Cc1ccc(N2C[C@@H]3CC[C@H]2CN3C(=O)COC2(c3ccc(F)c(F)c3)CC2)nc1` [Example 283, 6-((1S,4S)-5-(2-(1-(3,4-difluorophenyl)cyclopropoxy)acetyl)-2,5-diazabicyclo[2.2.2]octan-2-yl)nicotinonitrile], 6.00 to 7.00.

Regarding `N#Cc1ccc(N2[C@@H]3C[C@H]2CN(C(=O)COC2(c4ccc(F)c(F)c4)CC2)C3)nc1` [Example 284, 6-(3-(2-(1-(3,4-difluorophenyl)cyclopropoxy)acetyl)-3,6-diazabicyclo[3.1.1]heptan-6-yl)nicotinonitrile], the negative-log IC50 (pIC50) was 5.00 to 6.00. As for `N#Cc1ccc(N2C[C@H]3C[C@@H]2CN3C(=O)COC2(c3ccc(F)c(F)c3)CC2)nc1` [Example 285, 6-((1R,4R)-5-(2-(1-(3,4-difluorophenyl)cyclopropoxy)acetyl)-2,5-diazabicyclo[2.2.1]heptan-2-yl)nicotinonitrile], the pIC50 is less than 6.00. The result for `N#Cc1ccc(N2C[C@H]3CC[C@@H]2CN3C(=O)COC2(c3ccc(F)c(F)c3)CC2)nc1` [Example 286, 6-((1R,4R)-5-(2-(1-(3,4-difluorophenyl)cyclopropoxy)acetyl)-2,5-diazabicyclo[2.2.2]octan-2-yl)nicotinonitrile] reads less than 6.00; that for `N#Cc1ccc(N2C[C@@H]3C[C@H]2CN3C(=O)COC2(c3ccc(F)c(F)c3)CC2)nc1` [Example 287, 6-((1S,4S)-5-(2-(1-(3,4-difluorophenyl)cyclopropoxy)acetyl)-2,5-diazabicyclo[2.2.1]heptan-2-yl)nicotinonitrile], 5.00 to 6.00.

The record behind these values is patent US12565501B2, “Muscarinic acetylcholine M1 receptor antagonists” (Contineum Therapeutics, Inc., priority 2019, dated 2026).
